Where “and” joins values, the source holds several entries; their conditions need not be identical. Equal entries are not always repeated. Toxic doses and inconclusive results are not listed. The calls were made as follows: active = survival T/C of 150% or more; inactive = T/C below 125% in these data.
System: P388 leukemia ip, CD2F1 mice, survival T/C
Assay: NCI In Vivo Anticancer Drug Screen. Data for tumor model P388 Leukemia (intraperitoneal) in CD2F1 (CDF1) mice
Settings: endpoint: median survival time, higher = longer survival
Method in brief: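 Mice carrying the transplanted tumor received test compound or vehicle. Survival was recorded in each group, and the value is the treated-group measurement divided by that of the vehicle-treated control group.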

[1] = dose: 25.0 mg/kg/injection, schedule: Q01DX009 (ip), vehicle: saline with Tween-80
[2] = dose: 50.0 mg/kg/injection, schedule: Q01DX009 (ip), vehicle: Klucel (hydroxypropylcellulose) (HPC)
[3] = dose: 50.0 mg/kg/injection, schedule: Q01DX009 (ip), vehicle: saline with Tween-80
[4] = dose: 100.0 mg/kg/injection, schedule: Q01DX009 (ip), vehicle: Klucel (hydroxypropylcellulose) (HPC)
[5] = dose: 100.0 mg/kg/injection, schedule: Q01DX009 (ip), vehicle: saline with Tween-80
[6] = dose: 200.0 mg/kg/injection, schedule: Q01DX009 (ip), vehicle: Klucel (hydroxypropylcellulose) (HPC)
[7] = dose: 200.0 mg/kg/injection, schedule: Q01DX009 (ip), vehicle: saline with Tween-80
[8] = dose: 100.0 mg/kg/injection, schedule: Q01DX001 (ip), vehicle: saline
[9] = dose: 200.0 mg/kg/injection, schedule: Q01DX001 (ip), vehicle: saline
[10] = dose: 400.0 mg/kg/injection, schedule: Q01DX001 (ip), vehicle: saline
[11] = dose: 30.0 mg/kg/injection, schedule: Q01DX005 (ip), vehicle: saline with Tween-80
[12] = dose: 60.0 mg/kg/injection, schedule: Q01DX005 (ip), vehicle: saline with Tween-80
[13] = dose: 400.0 mg/kg/injection, schedule: Q01DX009 (ip), vehicle: saline with Tween-80
[14] = dose: 100.0 mg/kg/injection, schedule: Q04DX003 (ip), vehicle: saline
[15] = dose: 200.0 mg/kg/injection, schedule: Q04DX003 (ip), vehicle: saline
[16] = dose: 400.0 mg/kg/injection, schedule: Q04DX003 (ip), vehicle: saline
[17] = dose: 50.0 mg/kg/injection, schedule: Q01DX009 (ip), vehicle: saline
[18] = dose: 100.0 mg/kg/injection, schedule: Q01DX009 (ip), vehicle: saline
[19] = dose: 200.0 mg/kg/injection, schedule: Q01DX009 (ip), vehicle: saline
[20] = dose: 120.0 mg/kg/injection, schedule: Q01DX005 (ip), vehicle: saline with Tween-80

Measured: T/C

O=C1NC(=O)NC(C(=O)O)N1
inactive: dose: 12.5 mg/kg/injection, schedule: Q01DX009 (ip), vehicle: Klucel (hydroxypropylcellulose) (HPC) 105 % of control | dose: 25.0 mg/kg/injection, schedule: Q01DX009 (ip), vehicle: Klucel (hydroxypropylcellulose) (HPC) 105 % of control | [1] 94 % of control | dose: 50.0 mg/kg/injection, schedule: Q01DX009 (ip), vehicle: DMSO 103 % of control | [2] 104 % of control | [3] 100 % of control | dose: 100.0 mg/kg/injection, schedule: Q01DX009 (ip), vehicle: DMSO 100 % of control | [4] 104 % of control | [5] 100 % of control | dose: 200.0 mg/kg/injection, schedule: Q01DX009 (ip), vehicle: DMSO 97 % of control | [6] 115 % of control | [7] 95 % of control

Oc1ccccc1/C=N/Nc1nnnn1-c1ccccc1
inactive: dose: 100.0 mg/kg/injection, schedule: Q01DX001 (ip), vehicle: Klucel (hydroxypropylcellulose) (HPC) 102 % of control | dose: 200.0 mg/kg/injection, schedule: Q01DX001 (ip), vehicle: Klucel (hydroxypropylcellulose) (HPC) 102 % of control | dose: 400.0 mg/kg/injection, schedule: Q01DX001 (ip), vehicle: Klucel (hydroxypropylcellulose) (HPC) 98 % of control

COc1ccc(/C=C2/SC(=S)N(C(C)C)C2=O)cc1OC
inactive: dose: 6.25 mg/kg/injection, schedule: Q01DX009 (ip), vehicle: saline with Tween-80 88 % of control | dose: 12.5 mg/kg/injection, schedule: Q01DX009 (ip), vehicle: saline with Tween-80 90 % of control | [1] 94 % of control | [3] 88 % of control

NC(N)=NCCC(=O)c1cnc(N)[nH]1
inactive: dose: 8.75 mg/kg/injection, schedule: Q01DX005 (ip), vehicle: Klucel (hydroxypropylcellulose) (HPC) 106 % of control | dose: 17.5 mg/kg/injection, schedule: Q01DX005 (ip), vehicle: Klucel (hydroxypropylcellulose) (HPC) 107 % of control | dose: 35.0 mg/kg/injection, schedule: Q01DX005 (ip), vehicle: Klucel (hydroxypropylcellulose) (HPC) 100 % of control

N#CCc1ccc([N+](=O)[O-])cc1C(=O)O
inactive: dose: 50.0 mg/kg/injection, schedule: Q01DX005 (ip), vehicle: saline with Tween-80 104 % of control | dose: 100.0 mg/kg/injection, schedule: Q01DX005 (ip), vehicle: saline with Tween-80 104 % of control | dose: 200.0 mg/kg/injection, schedule: Q01DX005 (ip), vehicle: saline with Tween-80 101 % of control

C=C1CC2(CC(C(C)C)CCC2C)OC1=O (configuration not stated)
inactive: [8] 105 % of control | [9] 100 % of control | [10] 105 % of control

O=S(=O)(O)c1cc2cc(S(=O)(=O)O)c3nnc4cc(S(=O)(=O)O)cc5cc(S(=O)(=O)O)c(nnc6cc(S(=O)(=O)O)cc7cc(S(=O)(=O)O)c(nnc(c1)c2c3O)c(O)c76)c(O)c54
inactive: [11] 93 % of control | [12] 106 % of control and 91 % of control

COC(=O)C1C2C(C)CC3(CC12C)OCCO3 (configuration not stated)
inactive: [5] 91 % of control | [7] 91 % of control | [13] 91 % of control

Cc1ccnc(NC(N)=O)n1
inactive: [3] 103 % of control | [5] 103 % of control | [7] 101 % of control

Cn1nnnc1N/N=C(\Br)c1ccccc1
inactive: [7] 104 % of control | [13] 104 % of control

CCCCN(C(=O)N(CC)CC)[Si](C)(C)C
inactive: [2] 107 % of control | [4] 100 % of control | [6] 107 % of control

C[S+](C)CCCNC(=O)c1csc(-c2csc(N)n2)n1
inactive: dose: 6.25 mg/kg/injection, schedule: Q01DX005 (ip), vehicle: water 100 % of control | dose: 12.5 mg/kg/injection, schedule: Q01DX005 (ip), vehicle: water 96 % of control | dose: 25.0 mg/kg/injection, schedule: Q01DX005 (ip), vehicle: water 96 % of control

COc1cc(Br)cc(/C=C/[N+](=O)[O-])c1OC
inactive: [3] 115 % of control

Nc1ncnc2nc(-c3ccc(OCc4ccccc4)cc3)[nH]c12
inactive: [8] 101 % of control | [9] 94 % of control | [10] 98 % of control

Brc1nc(-[n+]2ccccc2)[n-]c1Br
inactive: [14] 101 % of control | [15] 99 % of control | [16] 100 % of control

COc1ccc(C(=O)CCN(C)C)c(OC)c1
inactive: dose: 15.0 mg/kg/injection, schedule: Q01DX005 (ip), vehicle: saline 102 % of control | dose: 30.0 mg/kg/injection, schedule: Q01DX005 (ip), vehicle: saline 94 % of control | dose: 60.0 mg/kg/injection, schedule: Q01DX005 (ip), vehicle: saline 106 % of control and 109 % of control

O=C1CCCCC=C1Cl
inactive: [17] 96 % of control | [18] 98 % of control | [19] 108 % of control

CCCCCCCCC(=O)CC
inactive: [5] 118 % of control | [14] 104 % of control | [7] 109 % of control | [15] 100 % of control | [16] 95 % of control

COc1onc(C)c1CC(=O)O
inactive: dose: 18.75 mg/kg/injection, schedule: Q01DX005 (ip), vehicle: saline with Tween-80 97 % of control | dose: 37.5 mg/kg/injection, schedule: Q01DX005 (ip), vehicle: saline with Tween-80 101 % of control | dose: 75.0 mg/kg/injection, schedule: Q01DX005 (ip), vehicle: saline with Tween-80 95 % of control | dose: 150.0 mg/kg/injection, schedule: Q01DX005 (ip), vehicle: saline with Tween-80 99 % of control

COc1ccc2c(c1)CN(Cc1ccccc1)CO2
inactive: [12] 104 % of control | [20] 105 % of control | dose: 240.0 mg/kg/injection, schedule: Q01DX005 (ip), vehicle: saline with Tween-80 102 % of control

CCc1cccc(CC)c1N1C(=O)c2cccnc2C1=O
inactive: [17] 100 % of control | [18] 97 % of control | [19] 93 % of control

CCOC(CN1Cc2cc(OC)c(OC)cc2CC1c1ccc(OC)c(OC)c1)OCC (configuration not stated)
inactive: [12] 95 % of control | [20] 92 % of control

CCOc1ccc(O)c(CN2CCN(Cc3cc(OCC)ccc3O)CC2)c1
inactive: dose: 15.0 mg/kg/injection, schedule: Q01DX005 (ip), vehicle: saline with Tween-80 100 % of control | [11] 100 % of control | [12] 98 % of control and 124 % of control

COC(=O)c1[nH]cc2ccccc12
inactive: dose: 100.0 mg/kg/injection, schedule: Q04DX003 (ip), vehicle: saline with Tween-80 98 % of control | dose: 200.0 mg/kg/injection, schedule: Q04DX003 (ip), vehicle: saline with Tween-80 104 % of control | dose: 400.0 mg/kg/injection, schedule: Q04DX003 (ip), vehicle: saline with Tween-80 102 % of control

O=c1c2ccccc2nc(-c2ccccc2Cl)n1/N=C/c1cccc([N+](=O)[O-])c1
inactive: dose: 0.78 mg/kg/injection, schedule: Q01DX009 (ip), vehicle: saline with Tween-80 99 % of control | dose: 1.56 mg/kg/injection, schedule: Q01DX009 (ip), vehicle: saline with Tween-80 92 % of control | dose: 3.12 mg/kg/injection, schedule: Q01DX009 (ip), vehicle: saline with Tween-80 91 % of control

Cc1c(C)[n+]([O-])c(-c2ccc(N(C)C)cc2)n1O
inactive: [3] 100 % of control | [5] 91 % of control | [7] 94 % of control

CC(=O)OC1CCC2CC3(CCC1(C)C2=O)OCCO3 (configuration not stated)
inactive: dose: 100.0 mg/kg/injection, schedule: Q04DX003 (ip), vehicle: saline + Tween-80 + alcohol 100 % of control | dose: 200.0 mg/kg/injection, schedule: Q04DX003 (ip), vehicle: saline + Tween-80 + alcohol 99 % of control | dose: 400.0 mg/kg/injection, schedule: Q04DX003 (ip), vehicle: saline + Tween-80 + alcohol 103 % of control

COc1ccc2c(c1OC)CN1CCc3cc4c(cc3C1C2)OCO4 (configuration not stated)
inactive: dose: 50.0 mg/kg/injection, schedule: Q01DX005 (ip), vehicle: Klucel (hydroxypropylcellulose) (HPC) 105 % of control and 91 % of control | dose: 100.0 mg/kg/injection, schedule: Q01DX005 (ip), vehicle: Klucel (hydroxypropylcellulose) (HPC) 100 % of control and 94 % of control | dose: 200.0 mg/kg/injection, schedule: Q01DX005 (ip), vehicle: Klucel (hydroxypropylcellulose) (HPC) 96 % of control and 94 % of control

Reference: PubChem BioAssay AID330 (DTP/NCI, 2004)
